The test system of series [1] is foot mucosa of slugs of species Arion. The format is in vivo. As to conditions: for ALP released into PBS / LDH released into PBS / Protein released into PBS: 1% w/v (HPβCD 5% w/v), total mean of 7 samples/day per slug. For orientation: LDH leaks from cells whose membrane has failed.
The subject of series [2] is foot mucosa of slugs of species Limax. It counts as in vivo. As to conditions: for % MP, mucus production as % of the body weight at the start of the day before the treatment: 1% w/v (HPβCD 5% w/v) in PBS, 15 min; for ALP released into PBS / LDH released into PBS / Protein released into PBS: 1% w/v (HPβCD 5% w/v), total mean of 7 samples/day per slug. The protocol: Slugs of the species Limax are terrestial slugs have lungs and also a small internal shell. As test substances hydroxypropyl-β-cyclodextrin (HPβCD), sodium tauro-24,25-dihdrofiisidate (STDHF) and sodium deoxycholate were selected. Benzalkonium chloride (1% w/v), HPβCD (5% w/v), STDHF (1% w/v) and SDC (1% w/v) were prepared in phosphate buffered saline (PBS, pH 7.4).
The enzymes lactate dehydrogenase (LDH) and alkaline phosphatase (ALP) and total protein released into the PBS were determined. The change in body weight and mucus production caused by the treatment were examined.

Series [3] deals with foot mucosa of slugs of species Arion. As to the kind of experiment: Slug mucosal toxicity test, Example 2 (15 min daily treatment, four days). As to conditions: in vivo; for % MP, mucus production as % of the body weight at the start of the day before the treatment / ALP released into PBS / Protein released into PBS: Arion (slug). The procedure: As test substance a β-blocking agent propranolo HCl (1% w/v) was used. Benzalkonium chloride (1% w/v) and Propranolol (1% w/v) were prepared in PBS (pH 7.4). The slugs were daily incubated during 15 min with the test solution during four days. After the incubation period the slugs were placed on 500 μL PBS in a petri dish. The PBS was sampled every hour and refreshed with 500 μL PBS for 3 hours after the treatment.
The enzymes (LDH, ALP) and the total protein released into the PBS were determined. The change in body weight and the mucus production caused by the treatment were examined.

Series [4] deals with foot mucosa of slugs of the species Arion. As to the kind of experiment: Slug mucosal toxicity test of local anaesthetics, Example 4. It counts as in vivo. The procedure:
The following local anaesthetics were used as test substance: procaine HCl, lidocaine HCl, prilocaine HCl, tetracaine HCl and bupivacaine HCl. All test substances were prepared in PBS (pH 7.4) at 1% w/v concentrations. The slugs were daily incubate during 15 min with the test solution during five days. After the incubation period the slugs were placed on 1 ml PBS in a petri dish. The PBS was sampled every hour and refreshed with 1 ml PBS for 3 hours after the treatment.
The total protein released into the PBS was determined.

Structures can show the parent of a compound that is named as a salt. Where two headings read alike, the source gives them in different places.

Consider `CC(=O)OC1CC2(C)C(CC(O)C3C4(C)CCC(O)C(C)C4CCC32C)C1=C(CCCC(C)C)C(=O)NCCS(=O)(=O)O` (stereo not shown) [STDHF, sodium tauro-24,25-dihdrofiisidate], for which the “ranking order of increasing toxicity” value in series [1] (Arion) is “PBS, 5% HPβCD<1% STDHF<1% SDC and 1% BAC”; in series [2] (Limax), “PBS, 5% HPβCD<1% STDHF<1% SDC and 1% BAC”. Moreover, the “LDH release (in words)” value in series [1] (Arion, 1% w/v) is recorded as “slightly increased LDH release”; in series [2] (Limax, 1% w/v), “slightly increased LDH release”. Further, the “body weight change (in words)” value in series [1] (Arion, 1% w/v) is recorded as “decrease in body weight”; in series [2] (Limax, 1% w/v), “decrease in body weight”. Further, the “mucus production (in words)” value in series [1] (Arion, HPβCD 5% w/v, STDHF 1% w/v) is recorded as “increased mucus production”; in series [2] (Limax, HPβCD 5% w/v, STDHF 1% w/v) it was “increased mucus production”. Besides, the “% MP, mucus production” value in series [1] (day 1, Arion, 1% w/v (HPβCD 5% w/v) in PBS, 15 min) is given as 7.7%; in series [1] (day 2, Arion, 1% w/v (HPβCD 5% w/v) in PBS, 15 min) it was 3.85%; in series [1] (day 3, Arion, 1% w/v (HPβCD 5% w/v) in PBS, 15 min) it was 3.45%; in series [1] (day 4, Arion, 1% w/v (HPβCD 5% w/v) in PBS, 15 min) it was 4.81%; in series [1] (day 5, Arion, 1% w/v (HPβCD 5% w/v) in PBS, 15 min), 4.41%. Besides, the “ALP released into PBS” value in series [1] (day 1, Arion) worked out at 21.77 U/L; in series [1] (day 2, Arion), 9.39 U/L; in series [1] (day 3, Arion), 8.66 U/L; in series [1] (day 4, Arion), 15.14 U/L; in series [1] (day 5, Arion) it was 4.81 U/L; in series [2] (day 1, Limax) it was 3.81 U/L. Moreover, the “ALP released into PBS” value in series [2] (day 2, Limax) is recorded as 6.49 U/L; in series [2] (day 3, Limax) it was 5.09 U/L; in series [2] (day 4, Limax) it was 3.28 U/L; in series [2] (day 5, Limax), 3.62 U/L. Further, the “LDH released into PBS” value in series [1] (day 1, Arion) came to 18.22 U/L; in series [1] (day 2, Arion) it was 14.44 U/L; in series [1] (day 3, Arion) it was 24.04 U/L; in series [1] (day 4, Arion), 20.53 U/L; in series [1] (day 5, Arion), 25.65 U/L; in series [2] (day 1, Limax), 1.65 U/L. In addition, the “LDH released into PBS” value amounted to 4.29 U/L in series [2] (day 2, Limax); 6.02 U/L in series [2] (day 3, Limax); 18.23 U/L in series [2] (day 4, Limax); 10.63 U/L in series [2] (day 5, Limax). Besides, the “Protein released into PBS” value in series [1] (day 1, Arion) is reported as 15.68 μg/30μL; in series [1] (day 2, Arion), 2.84 μg/30μL; in series [1] (day 3, Arion), 2.79 μg/30μL; in series [1] (day 4, Arion), 4.55 μg/30μL; in series [1] (day 5, Arion), 4.18 μg/30μL; in series [2] (day 1, Limax), 14.48 μg/30μL. In addition, the “Protein released into PBS” value worked out at 11.67 μg/30μL in series [2] (day 2, Limax); 6.27 μg/30μL in series [2] (day 3, Limax); 10.4 μg/30μL in series [2] (day 4, Limax); 10.36 μg/30μL in series [2] (day 5, Limax). Further, the “% MP, mucus production as % of the body weight at the start of the day before the treatment” value (“% MP, mucus production as %” for short) came to 6.85% in series [2] (day 1, Limax); 6.16% in series [2] (day 2, Limax); 7.52% in series [2] (day 3, Limax); 6.75% in series [2] (day 4, Limax); 6.6% in series [2] (day 5, Limax).

As to `CC(C)NCC(O)COc1cccc2ccccc12` (stereo not shown) [Propr, propranolol HCl], in series [3] (1 day), the “% MP, mucus production as %” value is recorded as 0.77%; the “ALP released into PBS” value is 0.35 U/L; the “Protein released into PBS” value came out at 4.89 μg/30 μL. Besides, in series [3] (2 day), the “% MP, mucus production as %” value was 3.74%; the “ALP released into PBS” value is on record as 2.19 U/L; the “Protein released into PBS” value is on record as 31.61 μg/30 μL. Besides, in series [3] (3 day), the “% MP, mucus production as %” value was determined as 3.11%; the “ALP released into PBS” value was determined as 17.50 U/L; the “Protein released into PBS” value amounted to 31.36 μg/30 μL. In series [3] (4 day), the “% MP, mucus production as %” value turned out to be 2.80%; the “ALP released into PBS” value is 18.43 U/L; the “Protein released into PBS” value was 20.88 μg/30 μL. Further, in series [3], the “colour of the mucus excreted by the slugs” value is given as “orange coloured”, the “irritation (in words)” value is reported as “considerable irritation”, the “membrane damage (in words)” value is “severe membrane damage” and the “survival of the slugs” value was “all the slugs were dead”.

For the compound `CCN(CC)CCOC(=O)c1ccc(N)cc1` [Procaine HCl, procaine HCl], the “% MP, mucus production as %” value in series [4] (Arion (slug), in vivo, 1 day) is 0%; in series [4] (Arion (slug), in vivo, 2 day) it was 0%; in series [4] (Arion (slug), in vivo, 3 day) it was 0%; in series [4] (Arion (slug), in vivo, 4 day) it was 0%; in series [4] (Arion (slug), in vivo, 5 day) it was 0%. In addition, the “Total protein release into PBS” value in series [4] (Arion (slug), in vivo, 1 day) was found to be 204 µg/mL; in series [4] (Arion (slug), in vivo, 2 day) it was 62 µg/mL; in series [4] (Arion (slug), in vivo, 3 day) it was 92 µg/mL; in series [4] (Arion (slug), in vivo, 4 day) it was 54 µg/mL; in series [4] (Arion (slug), in vivo, 5 day) it was 70 µg/mL. Further, the “damage (in words)” value in series [4] (in vivo) was “little or no damage”.

Consider `CCCCN1CCCCC1C(=O)Nc1c(C)cccc1C` (stereo not shown) [Bupivacaine HCl, bupivacaine HCl], for which the “% MP, mucus production as %” value is 7.24% in series [4] (Arion (slug), in vivo, 1 day); 5.22% in series [4] (Arion (slug), in vivo, 2 day); 2.74% in series [4] (Arion (slug), in vivo, 3 day); 1.64% in series [4] (Arion (slug), in vivo, 4 day); 1.34% in series [4] (Arion (slug), in vivo, 5 day). In addition, the “Total protein release into PBS” value turned out to be 755 µg/mL in series [4] (Arion (slug), in vivo, 1 day); 464 µg/mL in series [4] (Arion (slug), in vivo, 2 day); 277 µg/mL in series [4] (Arion (slug), in vivo, 3 day); 159 µg/mL in series [4] (Arion (slug), in vivo, 4 day); 313 µg/mL in series [4] (Arion (slug), in vivo, 5 day). For the same compound, the “mucus production (in words)” value in series [4] (in vivo) is listed as “increased mucus production”. Further, the “protein release (in words)” value in series [4] (in vivo) was “increased protein release”.

With `CCN(CC)CC(=O)Nc1c(C)cccc1C` [Lidocaine HCl, lidocaine HCl], the “damage (in words)” value in series [4] (1% w/v, 15 min daily, five days) is “little or no damage”. Moreover, the “% MP, mucus production as %” value in series [4] (day 1, 1% w/v in PBS, 15 min) was determined as 0%; in series [4] (day 2, 1% w/v in PBS, 15 min), 0%; in series [4] (day 3, 1% w/v in PBS, 15 min), 0%; in series [4] (day 4, 1% w/v in PBS, 15 min), 0%; in series [4] (day 5, 1% w/v in PBS, 15 min), 0%.

Turning to hydroxypropyl-β-cyclodextrin [HPβCD], in series [1] (in vivo), the “% MP, mucus production” value turned out to be 0%; the “mucus production (in words)” value is “no mucus production”; the “protein and enzyme release (in words)” value was “low protein and enzyme release”; the “ranking order of increasing toxicity” value is “PBS, 5% HPβCD<1% STDHF<1% SDC and 1% BAC”. For the same compound, in series [2] (in vivo), the “mucus production (in words)” value is reported as “no mucus production”; the “protein and enzyme release (in words)” value is “low protein and enzyme release”; the “ranking order of increasing toxicity” value was “PBS, 5% HPβCD<1% STDHF<1% SDC and 1% BAC”.

Source of the values: patent US6436630B1, “Method for testing the toxicity of chemical substances using gastropods” (priority 1998, dated 2002).
